Bounds are passed on as bounds.

The target of this assay is T1, GCase (Homo sapiens, UniProt P04062).
T1 construct: endogenous in cells; host or cells: HeLa cells
T1 sequence (P04062 40-536): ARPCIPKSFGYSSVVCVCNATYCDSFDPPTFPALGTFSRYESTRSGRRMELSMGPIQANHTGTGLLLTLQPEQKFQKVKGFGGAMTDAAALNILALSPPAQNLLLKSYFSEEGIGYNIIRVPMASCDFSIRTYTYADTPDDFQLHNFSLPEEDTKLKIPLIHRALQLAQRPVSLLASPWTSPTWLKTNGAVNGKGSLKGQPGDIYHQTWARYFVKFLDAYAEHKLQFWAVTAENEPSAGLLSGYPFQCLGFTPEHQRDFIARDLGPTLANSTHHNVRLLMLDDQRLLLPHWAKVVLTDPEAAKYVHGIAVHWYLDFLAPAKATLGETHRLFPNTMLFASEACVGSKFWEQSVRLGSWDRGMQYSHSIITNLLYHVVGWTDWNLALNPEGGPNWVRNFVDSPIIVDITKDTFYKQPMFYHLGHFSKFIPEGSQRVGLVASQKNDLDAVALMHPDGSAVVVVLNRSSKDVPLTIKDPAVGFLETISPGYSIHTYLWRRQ
Briefly: activation of GCase in a live cell PFB assay in HELA cells. Type of assay: cell-based. As to conditions: activation of GCase, EC50 ranges. As to the method:
Exemplary compounds were evaluated for activation of GCase in a live cell PFB assay in HELA cells (essentially as described in Ysselstein et al., “LRRK2 kinase activity regulates lysosomal glucocerebrosidase in neurons derived from Parkinson's disease patients” Nature Communications (2019) 10:5570). […] EC50 ranges: A: <10 μM; B: >10-50 μM; C: >50-100 μM; D: >100 μM.
In turn, `O=C1N(c2cncc(C(F)(F)F)c2)CCC12CCN(c1cnc3cnn(CC(F)F)c3n1)CC2` [Cmpd 674] returned a concentration giving a half-maximal response (EC50) of less than 10 µM.

Take `O=C1N(c2cnccc2C(F)(F)F)CCC12CCN(c1cnc3cnn(CC(F)F)c3n1)CC2` [Cmpd 675]: the EC50 was in the range of 10 to 50 µM.

`O=C1N(c2ccnc(C(F)(F)F)c2)CCC12CCN(c1cnc3cnn(CC(F)F)c3n1)CC2` [Cmpd 676] displayed a 50% effective concentration (EC50) of less than 10 µM.

The compound `O=C1N(c2ccncc2C(F)(F)F)CCC12CCN(c1cnc3cnn(CC(F)F)c3n1)CC2` [Cmpd 677] registered a half-maximal effective concentration (EC50) of 10 to 50 µM.

Regarding `O=C1N(c2ccc(C(F)(F)F)cn2)CCC12CCN(c1cnc3cnn(CC(F)F)c3n1)CC2` [Cmpd 678], the EC50 fell in the range of 10 to 50 µM.

`O=C1N(c2ncccc2C(F)(F)F)CCC12CCN(c1cnc3cnn(CC(F)F)c3n1)CC2` [Cmpd 679] yielded an EC50 of 10 to 50 µM.

`O=C1CC2(CCN(c3cnc4cnn(CC(F)F)c4n3)CC2)CN1c1ccc(C(F)(F)F)nc1` [Cmpd 680] gave an EC50 of 10 to 50 µM.

In the case of `O=C1CC2(CCN(c3cnc4cnn(CC(F)F)c4n3)CC2)CN1c1cncc(C(F)(F)F)c1` [Cmpd 681], the EC50 is 10 to 50 µM.

As to `O=C1CC2(CCN(c3cnc4cnn(CC(F)F)c4n3)CC2)CN1c1cnccc1C(F)(F)F` [Cmpd 682], the concentration giving a half-maximal response (EC50) lay within 10 to 50 µM.

On to `O=C1CC2(CCN(c3cnc4cnn(CC(F)F)c4n3)CC2)CN1c1ccnc(C(F)(F)F)c1` [Cmpd 683], for which the EC50 was less than 10 µM.

On to `O=C1CC2(CCN(c3cnc4cnn(CC(F)F)c4n3)CC2)CN1c1ccncc1C(F)(F)F` [Cmpd 684], for which the concentration for a half-maximal effect (EC50) was less than 10 µM.

`O=C1CC2(CCN(c3cnc4cnn(CC(F)F)c4n3)CC2)CN1c1ccc(C(F)(F)F)cn1` [Cmpd 685] registered an EC50 of 10 to 50 µM.

For the compound `O=C1CC2(CCN(c3cnc4cnn(CC(F)F)c4n3)CC2)CN1c1ncccc1C(F)(F)F` [Cmpd 686], the concentration giving a half-maximal response (EC50) was greater than 100 µM.

`FC(F)Cn1ncc2ncc(N3CCC4(CCC(Oc5ccncc5C(F)(F)F)C4)CC3)nc21` (stereo not drawn) [Cmpd 687] gave an EC50 of less than 10 µM.

Turning to `FC(F)Cn1ncc2ncc(N3CCC4(CCC(Oc5cnccc5C(F)(F)F)C4)CC3)nc21` (stereo not drawn) [Cmpd 688], the EC50 was less than 10 µM.

The compound `FC(F)Cn1ncc2ncc(N3CCC4(CCC(Oc5ncccc5C(F)(F)F)C4)CC3)nc21` (stereo not drawn) [Cmpd 689] gave an EC50 of 10 to 50 µM.

Consider `FC(F)Cn1ncc2ncc(N3CCC4(CCC(Oc5ccnc(C(F)(F)F)c5)C4)CC3)nc21` (stereo not drawn) [Cmpd 690], for which the concentration giving a half-maximal response (EC50) is less than 10 µM.

`FC(F)Cn1ncc2ncc(N3CCC4(CCC(Oc5cncc(C(F)(F)F)c5)C4)CC3)nc21` (stereo not drawn) [Cmpd 691] registered an EC50 of 10 to 50 µM.

Compound `FC(F)Cn1ncc2ncc(N3CCC4(CCC(Oc5cc(C(F)(F)F)ccn5)C4)CC3)nc21` (stereo not drawn) [Cmpd 692] gave an EC50 of 10 to 50 µM.

As to `FC(F)Cn1ncc2ncc(N3CCC4(CCC(Oc5ccc(C(F)(F)F)nc5)C4)CC3)nc21` (stereo not drawn) [Cmpd 693], the concentration giving a half-maximal response (EC50) is less than 10 µM.

`FC(F)Cn1ncc2ncc(N3CCC4(CCC(Oc5ccc(C(F)(F)F)cn5)C4)CC3)nc21` (stereo not drawn) [Cmpd 694]: the EC50 lay in the range of 10 to 50 µM.

Regarding `FC(F)Cn1ncc2ncc(N3CCC4(CC3)CC(COc3ccnc(C(F)(F)F)c3)C4)nc21` [Cmpd 695], the EC50 was less than 10 µM.

The compound `FC(F)Cn1ncc2ncc(N3CCC4(CC3)CC(COc3cncc(C(F)(F)F)c3)C4)nc21` [Cmpd 696] registered an EC50 of less than 10 µM.

`FC(F)Cn1ncc2ncc(N3CCC4(CC3)CC(COc3cc(C(F)(F)F)ccn3)C4)nc21` [Cmpd 697] had an EC50 of 10 to 50 µM.

`FC(F)Cn1ncc2ncc(N3CCC4(CC3)CC(COc3ccncc3C(F)(F)F)C4)nc21` [Cmpd 698]: the 50% effective concentration (EC50) is less than 10 µM.

`FC(F)Cn1ncc2ncc(N3CCC4(CC3)CC(COc3cnccc3C(F)(F)F)C4)nc21` [Cmpd 699]: the concentration for a half-maximal effect (EC50) is less than 10 µM.

`FC(F)Cn1ncc2ncc(N3CCC4(CC3)CC(COc3ncccc3C(F)(F)F)C4)nc21` [Cmpd 700] had an EC50 of less than 10 µM.

`FC(F)Cn1ncc2ncc(N3CCC4(CC3)CC(COc3ccc(C(F)(F)F)nc3)C4)nc21` [Cmpd 701] displayed an EC50 of 10 to 50 µM.

The compound `FC(F)Cn1ncc2ncc(N3CCC4(CC3)CC(COc3ccc(C(F)(F)F)cn3)C4)nc21` [Cmpd 702] had an EC50 of 10 to 50 µM.

The compound `FC(F)Cn1ncc2ncc(N3CCC4(CC3)CC(Oc3ccnc(C(F)(F)F)c3)C4)nc21` [Cmpd 703] yielded a half-maximal effective concentration (EC50) of less than 10 µM.

`FC(F)Cn1ncc2ncc(N3CCC4(CC3)CC(Oc3cncc(C(F)(F)F)c3)C4)nc21` [Cmpd 704] showed an EC50 of less than 10 µM.

For `FC(F)Cn1ncc2ncc(N3CCC4(CC3)CC(Oc3cc(C(F)(F)F)ccn3)C4)nc21` [Cmpd 705], the concentration for a half-maximal effect (EC50) was 10 to 50 µM.

`FC(F)Cn1ncc2ncc(N3CCC4(CC3)CC(Oc3ccncc3C(F)(F)F)C4)nc21` [Cmpd 706] registered an EC50 of less than 10 µM.

The compound `FC(F)Cn1ncc2ncc(N3CCC4(CC3)CC(Oc3cnccc3C(F)(F)F)C4)nc21` [Cmpd 707] came in with an EC50 of 10 to 50 µM.

Turning to `FC(F)Cn1ncc2ncc(N3CCC4(CC3)CC(Oc3ncccc3C(F)(F)F)C4)nc21` [Cmpd 708], the EC50 is 10 to 50 µM.

In turn, `FC(F)Cn1ncc2ncc(N3CCC4(CC3)CC(Oc3ccc(C(F)(F)F)nc3)C4)nc21` [Cmpd 709] returned an EC50 of 10 to 50 µM.

The compound `FC(F)Cn1ncc2ncc(N3CCC4(CC3)CC(Oc3ccc(C(F)(F)F)cn3)C4)nc21` [Cmpd 710] gave an EC50 of 10 to 50 µM.

Take `O=C1N(c2cc(C(F)(F)F)ccn2)C(=O)C2(CCN(c3cnc4cnn(CC(F)F)c4n3)CC2)N1CC1CC1` [Cmpd 711]: the EC50 fell in the range of 10 to 50 µM.

Regarding `O=C1N(c2cc(C(F)(F)F)ccn2)C(=O)C2(CCN(c3cnc4cnn(CC(F)F)c4n3)CC2)N1CCC1CC1` [Cmpd 712], the EC50 fell in the range of 10 to 50 µM.

For the compound `COCCN1C(=O)N(c2cc(C(F)(F)F)ccn2)C(=O)C12CCN(c1cnc3cnn(CC(F)F)c3n1)CC2` [Cmpd 713], the EC50 was less than 10 µM.

`O=C1N(c2cc(C(F)(F)F)ccn2)C(=O)C2(CCN(c3cnc4cnn(CC(F)F)c4n3)CC2)N1Cc1ccc(F)cc1F` [Cmpd 714] yielded an EC50 of less than 10 µM.

In the case of `O=C1N(c2cc(C(F)(F)F)ccn2)C(=O)C2(CCN(c3cnc4cnn(CC(F)F)c4n3)CC2)N1Cc1c(F)cccc1F` [Cmpd 715], the 50% effective concentration (EC50) is less than 10 µM.

Compound `O=C1N(c2cc(C(F)(F)F)ccn2)C(=O)C2(CCN(c3cnc4cnn(CC(F)F)c4n3)CC2)N1Cc1cc(F)cc(F)c1` [Cmpd 716] showed an EC50 of less than 10 µM.

With `O=C1N(c2cc(C(F)(F)F)ccn2)C(=O)C2(CCN(c3cnc4cnn(CC(F)F)c4n3)CC2)N1Cc1cccc(F)c1F` [Cmpd 717], the concentration giving a half-maximal response (EC50) is less than 10 µM.

`O=C1N(c2cc(C(F)(F)F)ccn2)C(=O)C2(CCN(c3cnc4cnn(CC(F)F)c4n3)CC2)N1Cc1cc(F)ccc1F` [Cmpd 718] came in with an EC50 of less than 10 µM.

As to `O=C1N(c2cc(C(F)(F)F)ccn2)C(=O)C2(CCN(c3cnc4cnn(CC(F)F)c4n3)CC2)N1Cc1ccc(F)c(F)c1` [Cmpd 719], the 50% effective concentration (EC50) was less than 10 µM.

`O=C1CC2(CN1c1ccnc(C(F)(F)F)c1)C1CC2CN(c2cnc3cnn(CC(F)F)c3n2)C1` (stereo not drawn) [Cmpd 721] came in with a half-maximal effective concentration (EC50) greater than 100 µM.

In turn, `O=C1CC2(CN1c1ccc(F)c(C(F)(F)F)c1)C1CC2CN(c2cnc3cnn(CC(F)F)c3n2)C1` (stereo not drawn) [Cmpd 722] had a half-maximal effective concentration (EC50) of 10 to 50 µM.

`O=C1CC2(CC3CCC(C2)N3c2cnc3cnn(CC(F)F)c3n2)CN1c1cc(C(F)(F)F)ccn1` (stereo not drawn) [Cmpd 723] gave an EC50 of 10 to 50 µM.

In turn, `O=C1CC2(CN1c1cc(C(F)(F)F)ccn1)C1CCC2CN(c2cnc3cnn(CC(F)F)c3n2)C1` (stereo not drawn) [Cmpd 724] gave an EC50 of 10 to 50 µM.

`CC1CN(c2cnc3cnn(CC(F)F)c3n2)CCC12CC(=O)N(c1cc(C(F)(F)F)ccn1)C2` (stereo not drawn) [Cmpd 725]: the EC50 lay in the range of 10 to 50 µM.

As for `CC1CC2(CCN1c1cnc3cnn(CC(F)F)c3n1)CC(=O)N(c1cc(C(F)(F)F)ccn1)C2` (stereo not drawn) [Cmpd 726], the half-maximal effective concentration (EC50) fell in the range of 10 to 50 µM.

Compound `O=C1CC2(CCN(c3cnc4cnn(CC(F)F)c4n3)CC2)CN1c1ccc(F)cc1F` [Cmpd 728] returned a concentration for a half-maximal effect (EC50) of 10 to 50 µM.

`O=C1CC2(CCN(c3cnc4cnn(CC(F)F)c4n3)CC2)CN1c1ccc(C(F)(F)F)cc1F` [Cmpd 729] registered an EC50 of less than 10 µM.

`Fc1ccc(N2CCC3(CCN(c4cnc5cnn(CC(F)F)c5n4)CC3)C2)c(F)c1` [Cmpd 730]: the concentration for a half-maximal effect (EC50) lay in the range of 10 to 50 µM.

`FC(F)Cn1ncc2ncc(N3CCC4(CCN(c5cnnc(C(F)(F)F)c5)C4)CC3)nc21` [Cmpd 731] displayed a concentration giving a half-maximal response (EC50) of 10 to 50 µM.

With `FC(F)Cn1ncc2ncc(N3CCC4(CCN(c5ccc(C(F)(F)F)nn5)C4)CC3)nc21` [Cmpd 732], the concentration for a half-maximal effect (EC50) is 10 to 50 µM.

Consider `FC(F)Cn1ncc2ncc(N3CCC4(CCN(c5cncc(C(F)(F)F)n5)C4)CC3)nc21` [Cmpd 733], for which the EC50 was less than 10 µM.

On to `FC(F)Cn1ncc2ncc(N3CCC4(CCN(c5cnc(C(F)(F)F)cn5)C4)CC3)nc21` [Cmpd 734], for which the concentration for a half-maximal effect (EC50) was less than 10 µM.

Take `FC(F)Cn1ncc2ncc(N3CCC4(CC3)CCN(c3nccnc3C(F)(F)F)C4)nc21` [Cmpd 735]: the concentration giving a half-maximal response (EC50) fell in the range of 10 to 50 µM.

`FC(F)Cn1ncc2ncc(N3CCC4(CCN(c5cnc(C(F)(F)F)nc5)C4)CC3)nc21` [Cmpd 736] returned a concentration for a half-maximal effect (EC50) of 10 to 50 µM.

For the compound `FC(F)Cn1ncc2ncc(N3CCC4(CCN(c5ccnc(C(F)(F)F)n5)C4)CC3)nc21` [Cmpd 737], the EC50 was less than 10 µM.

Compound `FC(F)Cn1ncc2ncc(N3CCC4(CCN(c5ccnc(OCC(F)(F)F)n5)C4)CC3)nc21` [Cmpd 738] displayed an EC50 of less than 10 µM.

The values are drawn from US20250034170A1, “SMALL MOLECULE MODULATORS OF GLUCOCEREBROSIDASE ACTIVITY AND USES THEREOF” (Vanqua Bio, Inc., priority 2021, published 2025).
